Our source for the Kd values is PubChem BioAssay AID608 (Sanford-Burnham Center for Chemical Genomics, 2007).

Activity calls are given as the source filed them. No rule for the calls is given here.

The target in this experiment is Peptidyl-prolyl cis-trans isomerase FKBP1A (Homo sapiens) (UniProt P62942). In words: small-molecule binding to FKBP12 – biophysical, NMR detection (AID 608). The conditions noted are these: purified FKBP12.
Sequence of Peptidyl-prolyl cis-trans isomerase FKBP1A (Homo sapiens) (P62942 whole entry, looked up): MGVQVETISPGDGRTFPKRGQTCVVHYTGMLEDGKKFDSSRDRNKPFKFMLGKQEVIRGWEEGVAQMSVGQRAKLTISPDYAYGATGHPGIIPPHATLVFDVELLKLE
In the case of `COc1cccc(-c2cc(=O)c3cc(OC)ccc3o2)c1`, the Kd (as a rule, a measure of binding affinity in units of concentration) is > 4 mM (inactive). The value for `O=C(Nc1ccc2c(c1)OCO2)c1ccc(=O)[nH]n1` was > 4 mM (inactive). As for `NC(Cc1c[nH]c2ccccc12)C(=O)O` (stereo not given), the Kd was > 4 mM (inactive).

As to `Cc1ccc(SCc2nc(-c3cccnc3)no2)cc1`, the Kd is > 4 mM (inactive). Consider `Cc1cc(-c2ccccc2)nc2cc(C(N)=O)nn12`, for which the Kd is > 4 mM (inactive).

Turning to `COc1cc(/C=C2/NC(=S)NC2=O)cc(Cl)c1O`, the Kd is > 4 mM (inactive). Then `CCC(C)C(NC)C(=O)O` (stereo not given), with > 4 mM (inactive). Then `O=C1CSC(=S)N1N1C(=O)C2C3C=CC(C3)C2C1=O` (stereo not given), with > 4 mM (inactive); and `COc1ccc2c(c1OC)C(=O)O[C@H]2[C@H]1c2cc3c(cc2CCN1C)OCO3`, with > 4 mM (inactive); and `OCC1CCCN2CCCCC12` (stereo not given), with > 4 mM (inactive). Then `C#CCCCCCCCCCCCc1ccco1`, with > 4 mM (inactive); and `COC(=O)C[C@@H]1C2(C)C(=O)[C@@H](CC3=C4CC(=O)O[C@@H](c5ccoc5)[C@]4(C)CCC32)[C@H](OC(C)=O)C1(C)C` (stereo not given in full), with > 4 mM (inactive). As to `O=C1c2ccccc2C(=O)N1OCc1ccccc1`, the Kd is > 4 mM (inactive).

Turning to `CC1=C(/C=C/C(C)=C/C=C/C(C)=C/C=C/C=C(C)/C=C/C=C(C)/C=C/C2=C(C)CCCC2(C)C)C(C)(C)CCC1`, the Kd was > 4 mM (inactive). The value for `O=C(O)c1ccc(-n2cncn2)cc1` was > 4 mM (inactive); that for `COc1cccc(S(=O)(=O)Nc2cccnc2)c1` was > 4 mM (inactive). For `O=C(O)c1cccnc1N1CCCC1`, the Kd was > 4 mM (inactive). The value for `c1ccc2c(NC3=NCCS3)cccc2c1` was > 4 mM (inactive); that for `CCC(C)C(=O)O[C@@H]1C[C@@]2(C)[C@H](c3ccoc3)OC(=O)CC23OC2(C)O[C@]14[C@]1(C)[C@@H](CC(=O)OC)C5(C)CC1(O)[C@](O)(C5OC(=O)C1(C)OC1C)[C@@H](OC(C)=O)[C@]34O2` (stereo not given in full) was > 4 mM (inactive); that for `O=C1OCCC1Sc1nc2ccccc2c(=O)[nH]1` (stereo not given) was > 4 mM (inactive). Consider `COC(=O)Nc1nc2c(s1)CCCC2`, for which the Kd was > 4 mM (inactive).

As to `Oc1ccc(C(=S)N2CCOCC2)cc1`, the Kd was > 4 mM (inactive). The value for `CC(C)=CC1C(CO)C1(C)C` (stereo not given) was > 4 mM (inactive).

On to `O=C(NC1CCS(=O)(=O)C1)c1cccs1` (stereo not given), for which the Kd is > 4 mM (inactive). The value for `COc1ccc(N2C(=O)CCC2=O)c(OC)c1` was > 4 mM (inactive); that for `CN(C)C(=O)CCNS(=O)(=O)c1ccccc1` was > 4 mM (inactive); that for `Cc1nc(-c2ccccc2)ncc1C(=O)O` was > 4 mM (inactive). Then `O=c1[nH]c(=S)[nH]c2c1CCC2`, with > 4 mM (inactive).

With `Cc1[nH]ccc2c1[nH]c1cc(=O)ccc12`, the Kd is > 4 mM (inactive). Consider `O=C(Nc1ccc(N2CCOCC2)cc1)C1CC1`, for which the Kd is > 4 mM (inactive). Then `O=C(O)C1CC(=O)N(Cc2ccco2)C1` (stereo not given), with > 4 mM (inactive); and `CC(=O)Nc1ccc(Cl)c(C(N)=O)c1`, with > 4 mM (inactive); and `C[C@@H]1CC[C@@]2(OC1)O[C@H]1CC3C4CC[C@H]5C[C@@H](O)CC[C@]5(C)C4CC[C@]3(C)[C@H]1[C@@H]2C` (stereo not given in full), with > 4 mM (inactive). The value for `COc1ccc(NC(=O)CSc2nccc(=O)[nH]2)cc1` was > 4 mM (inactive). Then `CC(=O)OC1CCC23CC1(C)CCC2C(C)(C)CC3OC(C)=O` (stereo not given), with > 4 mM (inactive); and `NCC1CN(Cc2ccccc2)CCO1` (stereo not given), with > 4 mM (inactive). Turning to `Cc1cc(C(=O)N2CCCCCC2)cs1`, the Kd was > 4 mM (inactive).

`Cc1onc(-c2ccc(F)cc2)c1C(=O)O`: the Kd was > 4 mM (inactive). Then `CSc1nnc(CN2CCSCC2)n1C`, with > 4 mM (inactive); and `CC(C)NS(=O)(=O)c1ccc(OCC(=O)N2CCOCC2)cc1`, with “inactive”.

With `COc1c2ccoc2nc2c(OC)c(OCC(O)C(C)(C)O)ccc12` (stereo not given), the Kd was > 4 mM (inactive).

With `c1ccc(Cc2nnc3sc(-c4ccccn4)nn23)cc1`, the Kd is > 4 mM (inactive).

On to `OCCNc1ccccn1`, for which the Kd was > 4 mM (inactive). `Cn1c2ccccc2n2c(=S)[nH]nc12`: the Kd was > 4 mM (inactive). Then `CC(=O)OCc1cc(=O)n(C)c(=O)n1C`, with > 4 mM (inactive); and `CC(=O)c1c(C)nn(CC(=O)O)c1C`, with > 4 mM (inactive); and `Cc1cc2cc3c(C)cc(=O)oc3c(C)c2o1`, with > 4 mM (inactive). Then `CN(C)C(=O)Nc1ccc(F)cc1F`, with > 4 mM (inactive); and `Cc1nnc(SCC(=O)Nc2ccccc2)[nH]c1=O`, with > 4 mM (inactive). Then `Cc1nnsc1C(=O)O`, with > 4 mM (inactive); and `Cn1nnc2cc(C(=O)Nc3cccnc3)ccc21`, with > 4 mM (inactive). For `NC1=NC(=O)/C(=C/c2cccs2)S1`, the Kd is > 4 mM (inactive).

As for `COc1cc(CNC(=O)CCCC/C=C/C(C)C)ccc1O`, the Kd was > 4 mM (inactive). The value for `CC(=O)n1nc(-c2cccnc2)nc1N` was > 4 mM (inactive); that for `Cc1nn2c(nc1=O)SCC(c1ccccc1)=N2` was > 4 mM (inactive).

Turning to `Cc1cc(N)no1`, the Kd was > 4 mM (inactive).

As to `NC(Cn1ccc(=O)c(O)c1)C(=O)O` (stereo not given), the Kd was > 4 mM (inactive). The value for `S=C(Cc1cccnc1)N1CCOCC1` was > 4 mM (inactive); that for `COc1ccc(-c2nc(C)sc2CC(=O)O)cc1` was > 4 mM (inactive); that for `Cn1c(=O)c2[nH]cnc2n(C)c1=O` was > 4 mM (inactive). For the compound `COc1cc(C)nc(N(CCO)CCO)n1`, the Kd was > 4 mM (inactive). For the compound `NCc1ccc2c(c1)OCO2`, the Kd was > 4 mM (inactive). The value for `NC(=O)CC(=O)NC12CC3CC(CC(C3)C1)C2` was > 4 mM (inactive); that for `NC(=O)c1ccc(NC(=O)c2cccnc2)cc1` was > 4 mM (inactive); that for `c1ccc(Cc2nnc3sc(-c4cccnc4)nn23)cc1` was > 4 mM (inactive). For `Cc1cccc(-c2nnc(-c3ccc(N)cc3)o2)c1`, the Kd is > 4 mM (inactive). With `NC(=O)C1CCN(C(=O)Nc2ccccc2)CC1`, the Kd is > 4 mM (inactive).

With `CSc1nc(C)cc(Oc2ccc(=O)n(C)n2)n1`, the Kd was > 4 mM (inactive).

As for `Cc1ccsc1/C=c1\sc2ncnn2c1=O`, the Kd was > 4 mM (inactive). Then `Nc1[nH]c(=S)[nH]c(=O)c1-c1ccccc1`, with > 4 mM (inactive). Then `O=C1NC(=O)/C(=C\c2ccncc2)S1`, with > 4 mM (inactive); and `OCC1CCCC1O` (stereo not given), with > 4 mM (inactive). In the case of `O=C(O)C1CC(C2CCCCN2)CN2CCCCC12` (stereo not given), the Kd was > 4 mM (inactive). As for `CCOC(=O)CC1Sc2ccccc2NC1=S` (stereo not given), the Kd was > 4 mM (inactive). Then `O=C(CC1SC(=O)NC1=O)Nc1ccccc1` (stereo not given), with > 4 mM (inactive). Then `O=c1oc(-c2ccccc2)nc2c1cnn2-c1ccccc1`, with > 4 mM (inactive); and `Cn1c(=O)c2c(n(C)c1=O)=NC1(CCCCC1)N=2`, with > 4 mM (inactive). The value for `COC(=O)Nc1nc2c(C)cccc2s1` was > 4 mM (inactive); that for `COc1ccccc1/C=C\C(=O)O` was > 4 mM (inactive); that for `Cn1ccc(NC(=S)Nc2cccc([N+](=O)[O-])c2)n1` was > 4 mM (inactive).

Turning to `Cc1nc2ccccc2c2c1C(=O)N(N)C2=O`, the Kd is > 4 mM (inactive).

As for `CCCS(=O)(=O)N1CCN(c2ccccn2)CC1`, the Kd is > 4 mM (inactive). With `CC1(C)SCC(C(=O)O)N1C=O` (stereo not given), the Kd was > 4 mM (inactive).

On to `O=C(O)CCCc1nc2ccccc2s1`, for which the Kd was > 4 mM (inactive).

Regarding `CC1CN(C(=O)COc2ccccc2Cl)CC(C)O1` (stereo not given), the Kd is > 4 mM (inactive). Then `O=C1CC(=O)N(c2ccccc2)C(=O)N1`, with > 4 mM (inactive); and `OC1CNCc2cc3c(cc21)OCCO3` (stereo not given), with > 4 mM (inactive); and `O=c1[nH]cc(N2CCCCC2)c(=O)[nH]1`, with > 4 mM (inactive). The value for `O=C(O)CNC(=O)c1ccc([N+](=O)[O-])cc1` was > 4 mM (inactive). The value for `Cc1c(N=Cc2ccc[nH]2)c(=O)n(-c2ccccc2)n1C` was > 4 mM (inactive); that for `COc1ccc2cc1Oc1ccc(cc1)C[C@H]1c3c(cc4c(c3Oc3cc5c(cc3OC)CCN(C)[C@@H]5C2)OCO4)CCN1C` was > 4 mM (inactive); that for `CC(=O)Nc1ccc(NC(=O)N2CCOCC2)cc1` was > 4 mM (inactive). For `COC(=O)Cc1csc(N)n1`, the Kd is > 4 mM (inactive). With `CC1=NN(c2ccc(N)cc2)C(=O)C1`, the Kd is > 4 mM (inactive). Then `Cc1ccc(/C=C/C(=O)O)cc1S(=O)(=O)NCCO`, with > 4 mM (inactive); and `COC(=O)c1cccc(Cn2nnc3ccccc3c2=O)c1`, with > 4 mM (inactive); and `COc1ccc(Cl)cc1NS(=O)(=O)N1CCOCC1`, with “inactive”.

Regarding `O=S1(=O)C=C(Nc2ccccc2)CC1`, the Kd was 0.135 mM.

On to `OCCOc1ccc(C2=NCCO2)cc1`, for which the Kd was > 4 mM (inactive).

As for `CC(=O)Oc1c(C)c(C)c2c(c1C)CCC(C)(CCCC(C)CCCC(C)CCCC(C)C)O2` (stereo not given), the Kd is > 4 mM (inactive). Then `Cc1c(N=Cc2ccco2)c(=O)n(-c2ccccc2)n1C`, with > 4 mM (inactive).

Turning to `O=c1[nH]cnc2nc[nH]c12`, the Kd was > 4 mM (inactive).

On to `O=C1NCC(=O)N2CCc3ccccc3C12` (stereo not given), for which the Kd is > 4 mM (inactive).

Regarding `OCC12COC3c4ccccc4C(OC1)N32` (stereo not given), the Kd was > 4 mM (inactive). Then `O=C(O)CCN1CCOCC1`, with > 4 mM (inactive).
